# Test system: sugar cane seedlings
# Test: Growth of sugar cane seedlings treated in the greenhouse, then transplanted to the field
# Format: in vivo
# Description: On an area of 0.1 hectares where sugar cane plants were growing with a distance between the rows of approximately 1.5 m, the top part of the 8 months old sugar cane plants was removed by chopping off with a machete in a height of approximately 2-2.5 m. The removed top part was discarded. After 30 days, on the below, remaining stalks, shoots (“1st generation”) had developed from the buds. The top parts (approximately 30 cm) of these shoots were removed by cutting. New shoots (“2nd generation”) developed from the cut shoots of the 1st generation. 30 days after cutting the top part of the 1st generation shoots, the 2nd generation shoots were removed by cutting them off closely to the nodes. On average, every node had produced three 2nd generation shoots. The removed 2nd generation shoots were each placed in pots filled with humid coconut fibers. The pots were placed in a greenhouse, and seedlings were grown from the planted shoots at 25-35° C. and 70-80% humidity. While in the greenhouse, the shoots/seedlings were watered sufficiently. One part of the seedlings was treated once with pyraclostrobin (in form of the commercial product Comet®; EC; 250 g/l) by immersing the entire tray containing the planted shoots for 10 min into a solution containing 4 ml of Comet® concentrate per l; i.e. 1 g pyraclostrobin per l. Another part of the seedlings remained untreated (control). 30 to 45 days after having been placed in the greenhouse, the surviving seedlings were transferred to an acclimatization area and kept for 15 days. Then they were counted and transplanted to a field. In sum 96,000 seedlings had been obtained. This number was sufficient for planting an area of 6.4 hectares with the same distance between the rows and the plants in the rows as in the originating field. […] 20 days after transplanting, the plant height of the treated and untreated plants was determined.
smiles,measurement,setting,value
COC(=O)N(OC)c1ccccc1COc1ccn(-c2ccc(Cl)cc2)n1 [pyraclostrobin],Plant height,"1 g a.i./l, planted shoots immersed once for 10 min, height determined 20 days after transplanting to the field",38.3 cm
same,colour and vigour of the seedlings / young plants,"treated once while in the greenhouse, 1 g pyraclostrobin per l, compared with untreated seedlings","more intense, greener color and were more vigorous"
same,increase in plant height,"versus untreated control, 1 g pyraclostrobin per l, 20 days after transplanting",more than 30%

# — US9271448B2, “Method for cultivating sugar cane” (BASF SE, priority 2010, dated 2016)
